Values of other authors, collected in US20240083845A1 (priority 2020, published 2024).

Tests used:
[1] = system: ten further coronavirus strains; conditions: read-out: Ki values against ten further coronavirus strains; cited from earlier work
live virus = conditions: cited from earlier work

PF-00835231
Ki [1]: 0.03 to 4 nM
activity in cell-based live virus assays (live virus): ~1 µM
